This is an account of results in ChEMBL document CHEMBL1201862, “PubChem BioAssay data set” (2004).

SMILES strings stand for the structures.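 96-well plates; 48 h exposure; 5 concentrations. Endpoints by linear interpolation between flanking doses. Not reached: highest tested concentration assigned. At the GI50, growth is halved.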 Active and inactive are the calls of the source. Cut-off read from the data, not from the text of the source: active = GI50 up to about 1.1 µM and inactive = higher.

Holding throughout (test): inhibition of tumour cell growth, NCI panel, 48 h
The test system of assay [1] is NCI-H226.
Assay [2] deals with SK-MEL-5.
Assay [3] deals with Hs-578T.
For assay [4], the system named is SNB-75.
Assay [5] relates to LOX IMVI.
The subject of assay [6] is SF-295.
The subject of assay [7] is CAKI-1.
For assay [8], the system named is UO-31.
The subject of assay [9] is KM12.
In assay [10] the test system is COLO 205.
The subject of assay [11] is U-251.
Assay [12] deals with BT-549.
For assay [13], the system named is 786-0.
The subject of assay [14] is UACC-62.
Assay [15] deals with SF-539.
Assay [16] concerns IGROV-1.
The subject of assay [17] is SK-MEL-2.
Assay [18] relates to HCT-15.
Assay [19] has as its system SW-620.
The subject of assay [20] is T47D.

Regarding `O=C(O)CSc1nnc2c3ccccc3c3ccccc3c2n1`, the GI50 was 85.7 µM (inactive) in assay [1]; 45.9 µM (inactive) in assay [2]; 70.6 µM (inactive) in [3]; 36.6 µM (inactive) in assay [4]; 41.6 µM (inactive) in [5]; 41.8 µM (inactive) in assay [6]. For the same compound, the GI50 in assay [7] was > 100 µM (inactive); in assay [8], 33.6 µM (inactive); in [9] it was 42 µM (inactive); in assay [10], > 100 µM (inactive); in assay [11] it was 46.8 µM (inactive); in assay [12] it was > 100 µM (inactive). In addition, the GI50 was 56.2 µM (inactive) in assay [13]; 61.9 µM (inactive) in assay [14]; 52.2 µM (inactive) in [15]; 55.6 µM (inactive) in [16]; > 100 µM (inactive) in assay [17]; 44.5 µM in [18]. The GI50 in assay [19] was 42.7 µM (inactive).
Take `Cc1cccc(/C=N/NC(=S)N2CCCC2)n1`: the GI50 is 2.41 µM (inactive) in assay [1]; 0.259 µM (active) in [2]; 2.95 µM (inactive) in assay [4]; 0.267 µM (active) in [5]; 0.266 µM (active) in assay [6]; 0.197 µM (active) in [7]. In addition, the GI50 in [8] is 0.297 µM (active); in assay [10], 0.325 µM (active); in assay [11], 0.366 µM (active); in assay [12], 1.76 µM (inactive); in assay [13] it was 0.199 µM (active); in assay [20], < 0.0306 µM (active). Besides, the GI50 was 0.296 µM (active) in [14]; 0.479 µM (active) in assay [15]; 0.822 µM (active) in assay [16]; 1.01 µM (active) in assay [17]; 0.138 µM in assay [18]; 0.188 µM (active) in assay [19].
`Fc1cc(-c2ncc(Cl)cc2Cl)c2cccccc1-2`: the GI50 in [1], in assay [2], in assay [3], in [4], in assay [5] and in assay [6] was > 100 µM (inactive) each time. Moreover, the GI50 in assay [7], in [8], in assay [9], in assay [10], in assay [12] and in assay [13] was > 100 µM (inactive) throughout. The GI50 in assay [14] is > 100 µM (inactive); in assay [15], > 100 µM (inactive); in assay [16] it was > 100 µM (inactive); in assay [18] it was more than 100 µM.
For `C[C@@]1(O)C[C@@H](N2C(=O)O[C@@H](c3ccccc3)[C@H]2c2ccccc2)[C@@H]1COCc1ccccc1`, the GI50 was 20.2 µM (inactive) in assay [1]; 13.7 µM (inactive) in assay [2]; 21.9 µM (inactive) in assay [3]; 15.9 µM (inactive) in assay [5]; 16.4 µM (inactive) in assay [6]; 22 µM (inactive) in [7]. Also, the GI50 in [8] is 21.6 µM (inactive); in assay [9], 19.6 µM (inactive); in [10] it was 15 µM (inactive); in assay [11], 14.6 µM (inactive); in assay [12] it was 17.5 µM (inactive); in assay [13], 21.3 µM (inactive). In addition, the GI50 in [14] is 11.3 µM (inactive); in assay [15], 20.8 µM (inactive); in assay [16], 25 µM (inactive); in [17], 12.7 µM (inactive); in assay [18] it was 24.4 µM; in assay [19] it was 26 µM (inactive).
Turning to `CSc1cc(Cl)c(C)cc1S(=O)(=O)NC(=O)NNc1ccc(Cl)cc1`, the GI50 in [1] is 56 µM (inactive); in assay [2], 69.5 µM (inactive); in assay [3] it was 34.1 µM (inactive); in assay [4], > 100 µM (inactive); in [5] it was > 100 µM (inactive); in [6], > 100 µM (inactive). For the same compound, the GI50 in assay [7] is 94.6 µM (inactive); in assay [9], > 100 µM (inactive); in [10], > 100 µM (inactive); in [11], > 100 µM (inactive); in assay [13], > 100 µM (inactive); in [20], > 100 µM (inactive). Further, the GI50 in [15] is 40.1 µM (inactive); in [16], > 100 µM (inactive); in assay [17], > 100 µM (inactive); in assay [18], more than 100 µM; in assay [19], > 100 µM (inactive).
On to `CC1C(c2ccc(F)cc2)c2cc3c(cc2OC1N1CCCC1)OCO3` (stereo unspecified), for which the GI50 in assay [2] was 37.7 µM (inactive); in [3], 18 µM (inactive); in assay [4], 22.3 µM (inactive); in assay [5] it was 83.8 µM (inactive); in assay [6], 27.6 µM (inactive); in [7], 16.7 µM (inactive). For the same compound, the GI50 in [8] was 23.2 µM (inactive); in assay [9] it was 42.5 µM (inactive); in assay [10], 49.5 µM (inactive); in assay [13] it was 45.1 µM (inactive); in [20], 35.7 µM (inactive); in [14] it was 55 µM (inactive). Moreover, the GI50 in assay [15] is 30.4 µM (inactive); in [16] it was 42.2 µM (inactive); in [17], 89.3 µM (inactive); in assay [18], 34.4 µM; in assay [19] it was 47 µM (inactive).
Turning to `Cc1cccc2c1Oc1ncccc1C2NC(=O)CN(C)C` (stereo unspecified), the GI50 is > 10 µM (inactive) in assay [1]; 7.78 µM (inactive) in [4]; > 10 µM (inactive) in assay [5]; > 10 µM (inactive) in assay [6]; > 10 µM (inactive) in assay [8]; > 10 µM (inactive) in [9]. Moreover, the GI50 in assay [11], in assay [12], in assay [13], in assay [14], in [15] and in assay [16] was > 10 µM (inactive) in each case. For the same compound, the GI50 in [17] was > 10 µM (inactive); in [18] it was more than 10 µM; in [19], > 10 µM (inactive).
With `CC(NC1=NCCO1)c1ccccc1Cl` (stereo unspecified), the GI50 in [1] was 58.1 µM (inactive); in [2], > 100 µM (inactive); in [3], > 100 µM (inactive); in [4] it was 96.2 µM (inactive); in assay [5], > 100 µM (inactive); in assay [6], > 100 µM (inactive). Moreover, the GI50 in assay [7], in [8], in assay [9], in assay [10], in [11] and in assay [13] was > 100 µM (inactive) throughout. The GI50 is > 100 µM (inactive) in assay [20]; > 100 µM (inactive) in assay [14]; 27.2 µM (inactive) in [15]; > 100 µM (inactive) in [16]; > 100 µM (inactive) in assay [17]; more than 100 µM in assay [18]. Further, in assay [19], the GI50 was > 100 µM (inactive).
`CC1(C)CC(=O)c2c(N)n[nH]c2C1`: the GI50 in [1], in assay [2], in [4], in assay [5], in [6] and in [7] was > 100 µM (inactive) in each case. For the same compound, the GI50 in assay [8], in assay [9], in assay [10], in [11], in assay [12] and in [13] was > 100 µM (inactive) throughout. The GI50 in assay [14], in [15], in [16], in assay [17] and in assay [19] was > 100 µM (inactive) throughout.
As for `COc1ccc(C)cc1NC(=S)C#N`, the GI50 is 27.5 µM (inactive) in [1]; > 100 µM (inactive) in assay [2]; 25.1 µM (inactive) in [4]; > 100 µM (inactive) in assay [5]; 31.9 µM (inactive) in assay [6]; > 100 µM (inactive) in [7]. The GI50 in [9] is 36.2 µM (inactive); in [10], > 100 µM (inactive); in assay [11] it was > 100 µM (inactive); in assay [12], 35.2 µM (inactive); in assay [13] it was > 100 µM (inactive); in assay [20] it was > 100 µM (inactive). Besides, the GI50 in assay [14] was 34.4 µM (inactive); in [15], 33.1 µM (inactive); in assay [17] it was 29.2 µM (inactive); in assay [18] it was 27.5 µM; in assay [19], > 100 µM (inactive).
For the compound `[N-]=[N+]=CC(=O)OC1CCOCC1`, the GI50 in [1], in [2], in [5], in assay [6], in assay [7] and in assay [8] was > 100 µM (inactive) each time. The GI50 in assay [9], in [10], in assay [11], in assay [12], in assay [13] and in assay [14] was > 100 µM (inactive) in each case. Also, the GI50 is > 100 µM (inactive) in [16], > 100 µM (inactive) in assay [17], more than 100 µM in assay [18] and > 100 µM (inactive) in assay [19].
For `CC1CN=C(N(C(=O)Nc2ccc(Cl)cc2)c2cccc(Cl)c2)S1` (stereo unspecified), the GI50 in assay [2] was 17.5 µM (inactive); in assay [3], 50.1 µM (inactive); in [4], 65 µM (inactive); in [5], 21.6 µM (inactive); in [6] it was 20.1 µM (inactive); in assay [7], 12.9 µM (inactive). The GI50 was 37.4 µM (inactive) in assay [8]; 24.9 µM (inactive) in [9]; 18.5 µM (inactive) in assay [10]; 70.3 µM (inactive) in [11]; 23.9 µM (inactive) in [13]; 13 µM (inactive) in assay [20]. Further, the GI50 in [15] is 33.7 µM (inactive); in [16], 24.4 µM (inactive); in [17], 16.6 µM (inactive); in assay [18] it was 11.3 µM; in [19], 41.9 µM (inactive).
